Target: recombinant human ACC2 (Homo sapiens (Human), UniProt O00763)
Experiment: Measurement of inhibitory activity on human ACC2 (MALDI-TOF MS, acetyl CoA to malonyl CoA conversion)
Type: biochemical
Details: Tables 155-159
In short: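 His-tagged human ACC2 (residues 27–2458) from baculovirus-infected Sf-9 cells was preincubated 1 h in pH 7.4 HEPES-KOH buffer with MgCl2, 6-10 mM potassium citrate, glutathione and BSA. Substrate solution held 1 mM ATP, 0.8 mM acetyl CoA and 25-50 mM bicarbonate. After 1–3 h at room temperature, malonyl CoA/(malonyl+acetyl CoA) was read by negative-mode MALDI-TOF MS; citrate, bicarbonate and time varied by enzyme lot.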

Chain of recombinant human ACC2 (O00763 27-2458): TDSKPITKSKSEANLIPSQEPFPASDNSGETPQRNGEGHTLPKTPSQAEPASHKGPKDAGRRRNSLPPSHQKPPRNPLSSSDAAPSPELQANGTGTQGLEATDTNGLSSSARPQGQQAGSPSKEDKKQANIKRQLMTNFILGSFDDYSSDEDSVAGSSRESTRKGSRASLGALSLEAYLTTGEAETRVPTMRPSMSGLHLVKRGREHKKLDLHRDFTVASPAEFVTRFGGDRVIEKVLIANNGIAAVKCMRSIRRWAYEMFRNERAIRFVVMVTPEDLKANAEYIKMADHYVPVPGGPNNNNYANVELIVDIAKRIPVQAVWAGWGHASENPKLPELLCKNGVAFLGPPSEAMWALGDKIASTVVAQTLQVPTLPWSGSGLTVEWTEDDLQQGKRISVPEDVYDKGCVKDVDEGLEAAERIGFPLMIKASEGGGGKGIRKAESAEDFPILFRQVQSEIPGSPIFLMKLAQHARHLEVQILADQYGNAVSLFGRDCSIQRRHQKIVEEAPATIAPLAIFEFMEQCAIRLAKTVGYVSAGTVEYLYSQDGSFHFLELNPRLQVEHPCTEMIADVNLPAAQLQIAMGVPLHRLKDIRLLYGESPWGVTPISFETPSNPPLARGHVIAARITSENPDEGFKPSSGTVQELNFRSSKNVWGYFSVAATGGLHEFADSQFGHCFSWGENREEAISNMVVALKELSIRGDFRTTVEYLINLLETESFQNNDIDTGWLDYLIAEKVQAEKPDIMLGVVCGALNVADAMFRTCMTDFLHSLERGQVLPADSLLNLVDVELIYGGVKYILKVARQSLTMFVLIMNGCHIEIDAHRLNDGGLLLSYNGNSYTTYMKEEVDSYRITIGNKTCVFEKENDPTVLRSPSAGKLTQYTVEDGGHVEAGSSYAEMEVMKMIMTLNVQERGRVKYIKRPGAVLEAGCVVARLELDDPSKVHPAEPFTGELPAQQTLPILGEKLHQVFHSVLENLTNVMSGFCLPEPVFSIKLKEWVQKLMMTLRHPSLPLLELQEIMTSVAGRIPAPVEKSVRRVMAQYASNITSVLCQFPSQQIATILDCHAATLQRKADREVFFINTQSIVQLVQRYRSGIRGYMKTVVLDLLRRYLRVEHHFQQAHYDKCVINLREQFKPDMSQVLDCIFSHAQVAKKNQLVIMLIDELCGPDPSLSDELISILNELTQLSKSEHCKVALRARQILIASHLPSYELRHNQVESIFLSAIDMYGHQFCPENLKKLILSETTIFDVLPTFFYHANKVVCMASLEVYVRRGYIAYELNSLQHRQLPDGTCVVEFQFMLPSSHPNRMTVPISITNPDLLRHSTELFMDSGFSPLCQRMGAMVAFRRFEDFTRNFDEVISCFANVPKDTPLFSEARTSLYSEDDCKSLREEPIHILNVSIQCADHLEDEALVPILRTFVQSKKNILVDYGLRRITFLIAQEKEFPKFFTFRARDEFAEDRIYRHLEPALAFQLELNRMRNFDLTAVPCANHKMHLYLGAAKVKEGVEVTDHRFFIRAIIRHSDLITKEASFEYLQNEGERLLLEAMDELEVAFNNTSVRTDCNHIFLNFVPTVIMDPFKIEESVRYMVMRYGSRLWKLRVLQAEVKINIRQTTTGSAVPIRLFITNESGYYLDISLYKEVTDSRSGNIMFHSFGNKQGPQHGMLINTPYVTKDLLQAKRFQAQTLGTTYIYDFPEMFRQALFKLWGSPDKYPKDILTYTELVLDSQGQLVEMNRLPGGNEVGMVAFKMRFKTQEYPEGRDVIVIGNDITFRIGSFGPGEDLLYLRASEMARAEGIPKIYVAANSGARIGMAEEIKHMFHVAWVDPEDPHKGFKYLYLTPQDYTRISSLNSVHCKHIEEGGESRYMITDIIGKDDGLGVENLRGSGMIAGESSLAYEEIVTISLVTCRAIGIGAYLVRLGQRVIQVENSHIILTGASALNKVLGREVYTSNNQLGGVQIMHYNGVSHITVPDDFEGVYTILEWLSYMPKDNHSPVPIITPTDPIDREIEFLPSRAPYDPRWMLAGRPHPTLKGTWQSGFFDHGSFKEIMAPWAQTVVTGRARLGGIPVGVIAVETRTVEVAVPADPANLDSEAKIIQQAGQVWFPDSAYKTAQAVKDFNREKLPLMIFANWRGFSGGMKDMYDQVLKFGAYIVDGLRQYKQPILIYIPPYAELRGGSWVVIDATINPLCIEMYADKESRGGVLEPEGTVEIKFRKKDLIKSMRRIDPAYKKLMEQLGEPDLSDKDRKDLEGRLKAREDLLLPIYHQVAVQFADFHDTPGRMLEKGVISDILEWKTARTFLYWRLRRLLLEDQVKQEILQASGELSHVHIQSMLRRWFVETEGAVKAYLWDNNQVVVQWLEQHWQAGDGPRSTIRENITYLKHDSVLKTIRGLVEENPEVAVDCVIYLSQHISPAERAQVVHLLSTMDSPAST

`CCOc1nc2cnc(O[C@H]3CC[C@H](OC[C@H](C)NC(C)=O)CC3)c(F)c2s1` [Compound I-210] showed an IC50 of 6 nM.

Compound `CC(=O)N[C@@H](C)CO[C@H]1C[C@H](COc2ccc3nc(OCC4(C)COC4)sc3n2)C1` [Compound I-211] has an IC50 of 97 nM.

Compound `CCOc1nc2cc(Cl)c(OC[C@H]3C[C@H](OC[C@H](C)NC(C)=O)C3)nc2s1` [Compound I-212] has an IC50 of 17 nM.

In the case of `CC(=O)N[C@@H](C)CO[C@H]1C[C@H](COc2nc3sc(OCC(F)F)nc3cc2Cl)C1` [Compound I-213], the IC50 is reported as 28 nM.

`CCOc1nc2c(Cl)c(F)c(OC[C@H]3C[C@H](OC[C@H](C)NC(C)=O)C3)nc2s1` [Compound I-214] showed an IC50 of 39 nM.

For `CC(=O)N[C@@H](C)CO[C@H]1C[C@H](COc2ccc3nc(N4CC(F)(F)C4)sc3n2)C1` [Compound I-215], the IC50 was 21 nM.

`CCOc1nc2ccc(OC[C@H]3C[C@@H](OC[C@H](C)NC(C)=O)C3)nc2s1` [Compound I-216] gave an IC50 of 8 nM.

For `CC(=O)N[C@@H](C)CO[C@H]1C[C@@H](COc2ccc3nc(OCC(F)F)sc3n2)C1` [Compound I-217], the IC50 was 8 nM.

`CC(=O)N[C@@H](C)CO[C@H]1C[C@H](COc2ccc3nc(OC4CC(F)(F)C4)sc3n2)C1` [Compound I-218] showed an IC50 of 8 nM.

Compound `CC(=O)N[C@@H](C)CO[C@H]1CC[C@H](Oc2cc3sc(OC4CC(F)(F)C4)nc3cn2)CC1` [Compound I-219] has an IC50 of 4 nM.

In the case of `CC(=O)N[C@@H](C)CO[C@H]1CC[C@H](Oc2cc3sc(OCC4CC4(F)F)nc3cn2)CC1` (stereo partly shown) [Compound I-220], the IC50 is reported as 9 nM.

In the case of `CC(=O)N[C@@H](C)CO[C@H]1CC[C@H](Oc2cc3sc(OCc4ccc(F)cc4)nc3cn2)CC1` [Compound I-221], the IC50 is reported as 172 nM.

Compound `CC(=O)N[C@@H](C)CO[C@H]1CC[C@H](Oc2cc3sc(OCC4(F)COC4)nc3cn2)CC1` [Compound I-222] has an IC50 of 246 nM.

For `CC(=O)N[C@@H](C)CO[C@H]1CC[C@H](Oc2cc3sc(OC(C)CF)nc3cn2)CC1` (stereo partly shown) [Compound I-223], the IC50 was 48 nM.

Work on `CC(=O)N[C@@H](C)CO[C@H]1CC[C@H](Oc2cc3sc(OC4CC4)nc3cn2)CC1` [Compound I-224] yielded an IC50 of 34 nM.

For `CCOc1nc2ccc(OC[C@]3(F)C[C@H](OC[C@H](C)NC(C)=O)C3)nc2s1` [Compound I-225], the IC50 was 48 nM.

`CC(=O)N[C@@H](C)CO[C@H]1C[C@@](F)(COc2ccc3nc(OCC(F)F)sc3n2)C1` [Compound I-226] showed an IC50 of 103 nM.

`CC(=O)N[C@@H](C)CO[C@H]1C[C@H](COc2ccc3nc(N4CCC(F)(F)CC4)sc3n2)C1` [Compound I-227] gave an IC50 of 36 nM.

`CC(=O)N[C@@H](C)CO[C@H]1C[C@H](COc2ccc3nc(N4CCC(F)(F)C4)sc3n2)C1` [Compound I-228] was tested, and the IC50 was 27 nM.

Work on `CC(=O)N[C@@H](C)CO[C@H]1C[C@H](COc2ccc3nc(N4CCOCC4)sc3n2)C1` [Compound I-229] yielded an IC50 of 113 nM.

In the case of `CCN(C)c1nc2ccc(OC[C@H]3C[C@H](OC[C@H](C)NC(C)=O)C3)nc2s1` [Compound I-230], the IC50 is reported as 54 nM.

Work on `CC(=O)N[C@@H](C)CO[C@H]1C[C@H](COc2ccc3nc(N(C)C)sc3n2)C1` [Compound I-231] yielded an IC50 of 183 nM.

In the case of `CCOc1nc2ccc(O[C@H]3CC[C@H](OC[C@H](CC)NC(C)=O)CC3)c(F)c2s1` [Compound I-232], the IC50 is reported as 21 nM.

Work on `CCOc1nc2ccc(OC[C@H]3C[C@H](OC[C@H](CC)NC(C)=O)C3)c(F)c2s1` [Compound I-233] yielded an IC50 of 84 nM.

`CC(=O)N[C@@H](C)CO[C@H]1CC[C@H](Oc2ncc3nc(N4CCC4)sc3c2F)CC1` [Compound I-234] showed an IC50 of 8 nM.

With `CC(=O)N[C@@H](C)CO[C@H]1CC[C@H](Oc2ncc3nc(N4CC(F)C4)sc3c2F)CC1` [Compound I-235] the IC50 was 22 nM.

`CC(=O)N[C@@H](C)CO[C@H]1CC[C@H](Oc2ccc3nc(N4CCCC(F)(F)C4)sc3c2F)CC1` [Compound I-236] was tested, and the IC50 was 102 nM.

`CC(=O)N[C@@H](C)CO[C@H]1CC[C@H](Oc2ccc3nc(N4CCC4c4ccccc4)sc3c2F)CC1` (stereo partly shown) [Compound I-237] showed an IC50 of 891 nM.

Work on `CC(=O)N[C@@H](C)CO[C@H]1CC[C@H](Oc2ncc3nc(OC4CC4)sc3c2F)CC1` [Compound I-238] yielded an IC50 of 4 nM.

In the case of `CC(=O)N[C@@H](C)CO[C@H]1CC[C@H](Oc2ncc3nc(OCC(F)F)sc3c2F)CC1` [Compound I-239], the IC50 is reported as 8 nM.

`CC(=O)N[C@@H](C)CO[C@H]1CC[C@H](Oc2ncc3nc(OC(C)C)sc3c2F)CC1` [Compound I-240] showed an IC50 of 7 nM.

`CC(=O)N[C@@H](C)CO[C@H]1CC[C@H](Oc2ncc3nc(N4CC(F)(F)C4)sc3c2F)CC1` [Compound I-241] gave an IC50 of 173 nM.

`CC(=O)N[C@@H](C)CO[C@H]1C[C@H](COc2ccc3nc(OC4CCCC4)sc3n2)C1` [Compound I-242] showed an IC50 of 7 nM.

For `CC(=O)N[C@@H](C)CO[C@H]1C[C@H](COc2ccc3nc(OC4CCOCC4)sc3n2)C1` [Compound I-243], the IC50 was 28 nM.

Work on `CC(=O)N[C@@H](C)CO[C@H]1C[C@H](COc2ccc3nc(OC4CCCCC4)sc3n2)C1` [Compound I-244] yielded an IC50 of 7 nM.

`CC(=O)N[C@@H](C)CO[C@H]1C[C@H](COc2ccc3nc(OC4CCC4)sc3n2)C1` [Compound I-245] gave an IC50 of 4 nM.

Compound `CC(=O)N[C@@H](C)CO[C@H]1C[C@H](COc2ccc3nc(O[C@H]4CCOC4)sc3n2)C1` [Compound I-246] has an IC50 of 47 nM.

`CC(=O)N[C@@H](C)CO[C@H]1C[C@H](COc2ccc3nc(O[C@@H]4CCOC4)sc3n2)C1` [Compound I-247] was tested, and the IC50 was 17 nM.

In the case of `CC(=O)N[C@@H](C)CO[C@H]1C[C@H](COc2ccc3nc(OC4CCSCC4)sc3n2)C1` [Compound I-248], the IC50 is reported as 9 nM.

In the case of `CC(=O)N[C@@H](C)CO[C@H]1C[C@H](COc2ccc3nc(OC4CCSC4)sc3n2)C1` (stereo partly shown) [Compound I-249], the IC50 is reported as 8 nM.

With `COc1nc2ccc(OC[C@H]3C[C@H](OC[C@H](C)NC(C)=O)C3)nc2s1` [Compound I-250] the IC50 was 31 nM.

Compound `CC(=O)N[C@@H](C)CO[C@H]1C[C@@H](COc2ccc3nc(N4CC(F)(F)C4)sc3n2)C1` [Compound I-251] has an IC50 of 22 nM.

In the case of `CC(=O)N[C@@H](C)CO[C@H]1CC[C@H](Oc2ncc3nc(OC4CC(F)(F)C4)sc3c2F)CC1` [Compound I-252], the IC50 is reported as 8 nM.

With `CC(=O)N[C@@H](C)CO[C@H]1CC[C@H](Oc2ncc3nc(OCC4CC4(F)F)sc3c2F)CC1` (stereo partly shown) [Compound I-253] the IC50 was 11 nM.

`CC(=O)N[C@@H](C)CO[C@H]1C[C@H](COc2ccc3nc(N4CC(F)(F)C(F)(F)C4)sc3n2)C1` [Compound I-254] showed an IC50 of 20 nM.

`CC(=O)N[C@@H](C)CO[C@H]1C[C@H](COc2ccc3nc(N4CCC4)sc3n2)C1` [Compound I-255] showed an IC50 of 24 nM.

`CC(=O)N[C@@H](C)CO[C@H]1C[C@H](COc2ccc3nc(N4CC(F)C4)sc3n2)C1` [Compound I-256] was tested, and the IC50 was 39 nM.

`CC(=O)N[C@@H](C)CO[C@H]1C[C@H](COc2ccc3nc(N4CCCC4)sc3n2)C1` [Compound I-257] showed an IC50 of 14 nM.

`CC(=O)N[C@@H](C)CO[C@H]1C[C@H](COc2cc(C)c3nc(OC4CC4)sc3n2)C1` [Compound I-258] was tested, and the IC50 was 99 nM.

`CC(=O)N[C@@H](C)CO[C@H]1CC[C@H](Oc2cc3sc(O[C@H]4CCOC4)nc3cn2)CC1` [Compound I-259] showed an IC50 of 86 nM.

`CC(=O)N[C@@H](C)CO[C@H]1CC[C@H](Oc2cc3sc(O[C@@H]4CCOC4)nc3cn2)CC1` [Compound I-260] was tested, and the IC50 was 102 nM.

`CC(=O)N[C@@H](C)CO[C@H]1CC[C@H](Oc2cc3sc(OCC4(C)CC4)nc3cn2)CC1` [Compound I-261] was tested, and the IC50 was 17 nM.

For `CC(=O)N[C@@H](C)CO[C@H]1CC[C@H](Oc2cc3sc(OC[C@@H](C)F)nc3cn2)CC1` [Compound I-262], the IC50 was 53 nM.

With `CC(=O)N[C@@H](C)CO[C@H]1CC[C@H](Oc2cc3sc(OCC(C)(C)C#N)nc3cn2)CC1` [Compound I-263] the IC50 was 862 nM.

Work on `CC(=O)N[C@@H](C)CO[C@H]1CC[C@H](Oc2cc3sc(OCC4(C#N)CC4)nc3cn2)CC1` [Compound I-264] yielded an IC50 of 372 nM.

For `CC(=O)N[C@@H](C)CO[C@H]1C[C@H](COc2ccc3nc(N4CCCCC4)sc3n2)C1` [Compound I-265], the IC50 was 16 nM.

`CC(=O)N[C@@H](C)CO[C@H]1C[C@H](COc2nc3sc(N4CCC4)nc3cc2F)C1` [Compound I-266] gave an IC50 of 36 nM.

`CC(=O)N[C@@H](C)CO[C@H]1C[C@H](COc2nc3sc(N4CC(F)C4)nc3cc2F)C1` [Compound I-267] gave an IC50 of 58 nM.

`CC(=O)N[C@@H](C)CO[C@H]1C[C@H](COc2nc3sc(N4CC(F)(F)C4)nc3cc2F)C1` [Compound I-268] was tested, and the IC50 was 42 nM.

`CC(=O)N[C@@H](C)CO[C@H]1C[C@H](COc2ccc3nc(N4CCC4)sc3c2F)C1` [Compound I-269] was tested, and the IC50 was 125 nM.

Work on `CC(=O)N[C@@H](C)CO[C@H]1C[C@H](COc2ccc3nc(N4CCCC4)sc3c2F)C1` [Compound I-270] yielded an IC50 of 116 nM.

With `CC(=O)N[C@@H](C)CO[C@H]1CC[C@H](Oc2cc3sc(O[C@H]4C[C@@H](C#N)C4)nc3cn2)CC1` [Compound I-271] the IC50 was 83 nM.

In the case of `C[C@@H](CO[C@H]1CC[C@H](Oc2ncc3nc(OC4CC4)sc3c2F)CC1)NC(=O)CO` [Compound I-272], the IC50 is reported as 123 nM.

`CC(=O)N[C@@H](C)CO[C@H]1CC[C@H](Oc2ncc3nc(OC4COC4)sc3c2F)CC1` [Compound I-273] was tested, and the IC50 was 35 nM.

`CC(=O)N[C@@H](C)CO[C@H]1CC[C@H](Oc2ncc3nc(OCC4(F)COC4)sc3c2F)CC1` [Compound I-274] was tested, and the IC50 was 90 nM.

`CC(=O)N[C@@H](C)CO[C@H]1CC[C@H](Oc2ncc3nc(OCC4(C#N)CC4)sc3c2F)CC1` [Compound I-275] was tested, and the IC50 was 156 nM.

Work on `CC(=O)N[C@@H](C)CO[C@H]1CC[C@H](Oc2ncc3nc(O[C@H]4CCOC4)sc3c2F)CC1` [Compound I-276] yielded an IC50 of 13 nM.

For `CC(=O)N[C@@H](C)CO[C@H]1CC[C@H](Oc2ncc3nc(O[C@@H]4CCOC4)sc3c2F)CC1` [Compound I-277], the IC50 was 32 nM.

`CC(=O)N[C@@H](C)CO[C@H]1CC[C@H](Oc2cc(C)c3nc(N4CC(F)(F)C4)sc3n2)CC1` [Compound I-278] gave an IC50 of 87 nM.

Compound `CCOc1nc2c(C)cc(O[C@H]3CC[C@H](OC[C@H](C)NC(C)=O)CC3)nc2s1` [Compound I-279] has an IC50 of 8 nM.

— US10150728B2, “Alkylene derivatives” (Shionogi & Co., Ltd., priority 2013, dated 2018)
